Reference: US20050233973A1, “Tri-peptides for antidepressant applications” (priority 1997, published 2005)
Like-named read-outs stand apart in the source and are kept apart here. One block for each molecule: values may come before it. Non-standard residues stand in square brackets, D forms with d. Residues, ends and D or L forms follow the SMILES beside them. pGlu = O=C1CC[C@@H](C(=O)O)N1

How the values were obtained:
[1] = test system: 465B12 antibody (raised to TRH)
[2] = test system: CR-V3-B53 antibody (raised to TRH)
[3] = test system: EEP (R^2=Glu) antibody (580B6)
[4] = target: T1, TRH receptor-1 (TRHR-1) (Mus musculus, UniProt P21761); experiment: [3H]TRH competition binding, HEK293 cells expressing TRHR-1
T1 sequence (P21761 1-393): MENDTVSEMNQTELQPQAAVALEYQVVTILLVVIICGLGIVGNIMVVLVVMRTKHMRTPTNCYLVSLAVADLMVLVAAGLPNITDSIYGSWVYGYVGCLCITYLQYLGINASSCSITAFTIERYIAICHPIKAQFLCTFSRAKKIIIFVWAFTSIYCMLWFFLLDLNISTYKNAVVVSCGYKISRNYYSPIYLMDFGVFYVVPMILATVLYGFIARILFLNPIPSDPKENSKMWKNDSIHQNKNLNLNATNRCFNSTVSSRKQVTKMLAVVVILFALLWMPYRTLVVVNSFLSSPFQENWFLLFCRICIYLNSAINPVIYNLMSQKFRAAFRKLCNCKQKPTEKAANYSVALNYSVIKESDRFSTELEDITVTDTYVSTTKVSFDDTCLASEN

[5] = target: T2, TRH receptor-2 (TRHR-2) (Rattus norvegicus, UniProt A6IZR3); experiment: [3H]TRH competition binding, HEK293 cells expressing TRHR-2
T2 sequence (A6IZR3 1-352): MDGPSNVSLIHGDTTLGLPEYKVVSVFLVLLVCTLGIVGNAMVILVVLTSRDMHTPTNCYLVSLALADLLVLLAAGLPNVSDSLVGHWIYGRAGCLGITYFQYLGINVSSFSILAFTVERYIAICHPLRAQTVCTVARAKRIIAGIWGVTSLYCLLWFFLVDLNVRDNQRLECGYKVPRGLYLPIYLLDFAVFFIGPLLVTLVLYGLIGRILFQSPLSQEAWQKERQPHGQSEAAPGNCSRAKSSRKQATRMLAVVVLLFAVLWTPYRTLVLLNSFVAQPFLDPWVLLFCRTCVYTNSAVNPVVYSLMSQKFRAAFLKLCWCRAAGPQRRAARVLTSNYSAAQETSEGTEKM

[6] = test system: Porsolt forced swim animal model of depression; experiment: Porsolt swim test; format: in vivo, rats
[7] = Serum T3 and T4 levels in Porsolt test animals; format: in vivo, rats; conditions: for change in T3: animals of the Porsolt test; for T3 level: 0.5 mg/kg (sc)
Protocol: A Porsolt swim test with rats was used to examine the antidepressant effects of peptides where R^2=Glu or R^2=Phe, as set forth in Lloyd, R. L. et al., Pharamcology, Biochemistry and Behavior, 70:15-22 (2001), incorporated herein by reference. […] No effect of the blocking variable or interaction of the blocking variable with treatment was found.
Using the animal models of Example 11, T3 (triiodothyronine) and T4 (thyroxine) levels were tested. Serum T3 was determined by […], using fluorescence polarization of a fixed concentration of a fluorescent analog of T3 as provided in the Abbott IMX System. T4 was also determined by radioimmunoassay. With EEP, no changes in T3 were observed. […] With ELP (where R^2 is Leu) and EFP there was an increase in T3, but this was not correlated to swim scores, with ELP not producing a behavioral effect, and EFP producing a marginal behavioral effect.

[8] = Brain tissue analysis of TRH and EEP after peptide injection; format: in vivo, rats; conditions: 0.5 mg/kg (sc)
[9] = test system: pentobarbital-anesthetized rats; format: in vivo, male Wistar rats; conditions: for reduction in pentobarbitol-induced sleep time (analeptic effect): IC injection of 10 μg
Protocol: Twenty minutes after loss of the righting reflex, 10 μL of either sterile saline or peptide of this invention (1 or 10 μg/10 μL sterile saline) was administered by intracisternal (IC) injection. The time from IC injection to recovery of the righting reflex, as measured three times within 10 seconds, was recorded.

[10] = 50 micrograms given at bedtime; reduced from 12; cited from earlier work
[11] = target: TRH receptor-1 (TRHR-1); experiment: competition with 2 nM [^3H]TRH on HEK293 cells expressing TRHR-1
[12] = target: TRH receptor-2 (TRHR-2); experiment: competition with 2 nM [^3H]TRH on HEK293 cells expressing TRHR-2
[13] = test system: control HEK293 cells; experiment: Intracellular calcium response (fura2), non-transfected control cells; format: cell-based; conditions: Ca2+-free buffer
Protocol: The ability of peptides of the formula pGlu-[…] to stimulate an intracellular calcium response in transfected HEK293 of Example 5 was evaluated, to determine whether the peptides behave as agonists. […] The coverslip was then rinsed and placed in a Sykes-Moore chamber covered with 1 mL Ca^2+ and Mg^2+ free HBSS. Imaging was performed on a Nikon inverted microscope with a DAGE CCD72 camera and […] intensifier system. Cells were alternately excited at 340 and 380 nm and emission was measured at 490 nm; 340/380 ratios were obtained every 1.2 seconds and analyzed using Image-1 software from Universal Imaging Corporation. […] Peak responses from between 33 and 120 individual cells were averaged, and responses to TRH were measured with each set of cells as a standard. Most of the peptides caused a small increase in intracellular Ca^2+ when added to control HEK293 cells bathed in Ca^2+-containing medium, but with the exception of the R^2=Leu peptide, none of them evoked an appreciable Ca^2+ response in Ca^2+-free HBSS, which was used for all experiments.

[14] = target: T3, HEK293 cells expressing TRHR-1 (Mus musculus, UniProt P21761); experiment: Intracellular calcium response (fura2), TRHR-1 cells; format: cell-based
T3 construct: expressed in transfected cells
T3 sequence (P21761 1-393): T1 sequence (P21761 1-393)

[15] = target: T4, HEK293 cells expressing TRHR-2 (Rattus norvegicus, UniProt A6IZR3); experiment: Intracellular calcium response (fura2), TRHR-2 cells; format: cell-based
T4 sequence (A6IZR3 1-352): T2 sequence (A6IZR3 1-352)

[16] = high-dose (0.5 mg/kg sc), three injections
[17] = tracer 125I-TRH, assay standard = 1.00

relative potency for displacement of assay tracer [1]: 0.0225
relative potency for displacement of assay tracer [2]: 0.0055
relative potency for displacement of assay tracer [3]: 1.00
IC50 [4]: 27.7 µM
IC50 [5]: 21.4 µM
Molecule: NC(=O)CC[C@H](NC(=O)[C@@H]1CCC(=O)N1)C(=O)N1CCC[C@H]1C(N)=O [R^2 = Gln, reference compound] ([pGlu]-Gln-Pro-NH2)

Molecule: NC(=O)[C@@H]1CCCN1C(=O)[C@H](Cc1ccccc1)NC(=O)[C@@H]1CCC(=O)N1 [R^2 = Phe, pGlu-Phe-Pro-NH2] ([pGlu]-Phe-Pro-NH2)
mean immobility time ([6]; 0.5 mg/kg (sc)): 125 s
antidepressant effect compared to saline (total immobility time) [6, 16]: effective
change in T3 [7]: increase
changes in TRH or EEP in brain regions (tissue analysis) [8]: failed to find any changes
IC50 [5]: 3.36 µM

Molecule: NC(=O)[C@@H]1CCCN1C(=O)[C@H](CCC(=O)O)NC(=O)[C@@H]1CCC(=O)N1 [R^2 = Glu, pGlu-Glu-Pro-NH2] ([pGlu]-Glu-Pro-NH2)
mean immobility time ([6]; 0.05 mg/kg (ip)): 121 s
mean immobility time ([6]; 0.5 mg/kg (sc)): 58 s
antidepressant effect compared to saline (total immobility time) [6, 16]: effective
antidepressant effect compared to saline (total immobility time) ([6]; low-dose (0.05 mg/kg ip), three injections): effective
T3 level ([7]; R^2=Glu experiment, no significant difference to saline): 0.66 ng/mL
T3 level ([7]; R^2=Phe experiment, significant increase vs controls (P<0.028, one-tailed)): 0.85 ng/mL
change in T3 [7]: no changes
effect upon T3 or T4 levels ([7]; at the dosage used): No effect
reduction in pentobarbitol-induced sleep time (analeptic effect) [9]: had an analeptic effect
"wet dog" shaking while still anesthetized ([9]; rat, in vivo): never produced shaking
changes in TRH or EEP in brain regions (tissue analysis) [8]: failed to find any changes
relative potency for displacement of assay tracer [1, 17]: 0.02
relative potency for displacement of assay tracer [2, 17]: 0.0092
relative potency for displacement of assay tracer [3, 17]: 1.00
IC50 [4]: > 282 µM
IC50 [5]: > 282 µM

Molecule: N[C@@H](Cc1cc(I)c(Oc2ccc(O)c(I)c2)c(I)c1)C(=O)O [T3, liothyronine]
required numbers of ECTs [10]: 7

IC50 [11]: > 100 µg/mL
IC50 [12]: > 100 µg/mL
Molecule: [pGlu]-Val-Pro-NH2

IC50 [11]: > 100 µg/mL
IC50 [12]: > 100 µg/mL
Molecule: [pGlu]-Tyr-Pro-NH2

IC50 [4]: 69.5 µM
IC50 [5]: 39.4 µM
Molecule: NC(=O)[C@@H]1CCCN1C(=O)[C@H](CO)NC(=O)[C@@H]1CCC(=O)N1 [Ser, reference compound] ([pGlu]-Ser-Pro-NH2)

IC50 [11]: 0.0085 µg/mL
IC50 [12]: 0.0088 µg/mL
Molecule: pGlu-His-Pro-NH2, thyrotropin releasing hormone (TRH) (peptide)

IC50 [4]: > 262 µM
IC50 [5]: > 262 µM
Molecule: N=C(N)NCCC[C@H](NC(=O)[C@@H]1CCC(=O)N1)C(=O)N1CCC[C@H]1C(N)=O [Arg, reference compound] ([pGlu]-Arg-Pro-NH2)

IC50 [11]: > 100 µg/mL
IC50 [12]: > 100 µg/mL
Molecule: [pGlu]-Arg-Pro-NH2

Molecule: CC(C)C[C@H](NC(=O)[C@@H]1CCC(=O)N1)C(=O)N1CCC[C@H]1C(N)=O [R^2 = Leu, pGlu-Leu-Pro-NH2] ([pGlu]-Leu-Pro-NH2)
antidepressant effect compared to saline (total immobility time) ([6]; dose not stated): statistically meaningful behavioral effects were not observed
change in T3 [7]: increase
Ca2+ response [13]: small Ca^2+ transient
ability to block the Ca2+ response to low concentrations of TRH (antagonism) [14]: no effect was found
ability to block the Ca2+ response to low concentrations of TRH (antagonism) [15]: no effect was found
reduction in pentobarbitol-induced sleep time (analeptic effect) [9]: had an analeptic effect
relative potency for displacement of assay tracer [1, 17]: 0.301
relative potency for displacement of assay tracer [2, 17]: 0.088
relative potency for displacement of assay tracer [3, 17]: 5.00
IC50 [4]: 5.47 µM
IC50 [5]: 1.95 µM
